Assay results: ChEMBL document CHEMBL1201862, “PubChem BioAssay data set” (2004)
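A five-concentration, 48-hour dose response in 96-well plates underlies each endpoint, interpolated linearly between surrounding concentrations. GI50 = concentration required for 50% inhibition of growth.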 Calls of active or inactive are those of the source. Rule as the data show it: active = GI50 up to about 1.1 µM and inactive = higher.

Assays:
Test in all cases: growth of human tumour cells (NCI), 48 h
A549 = tested on: A549
CAKI-1 = tested on: CAKI-1
HCT-116 = tested on: HCT-116
HCT-15 = tested on: HCT-15
HT-29 = tested on: HT-29
KM12 = tested on: KM12
LOX IMVI = tested on: LOX IMVI
M14 = tested on: M14
MDA-MB-231 = tested on: MDA-MB-231
MDA-N = tested on: MDA-N
OVCAR-4 = tested on: OVCAR-4
OVCAR-8 = tested on: OVCAR-8
SN12C = tested on: SN12C
SNB-19 = tested on: SNB-19
SR = tested on: SR
SW-620 = tested on: SW-620
U-251 = tested on: U-251
UACC-257 = tested on: UACC-257
UACC-62 = tested on: UACC-62
COLO 205 = tested on: COLO 205

Row | SMILES | GI50 (A549) | GI50 (CAKI-1) | GI50 (HCT-116) | GI50 (HCT-15) [µM] | GI50 (HT-29) | GI50 (KM12) | GI50 (LOX IMVI) | GI50 (M14) | GI50 (MDA-MB-231) | GI50 (MDA-N) | GI50 (OVCAR-4) | GI50 (OVCAR-8) | GI50 (SN12C) | GI50 (SNB-19) | GI50 (SR) | GI50 (SW-620) | GI50 (U-251) | GI50 (UACC-257) | GI50 (UACC-62) | GI50 (COLO 205)
1 | Cc1ccc2c(C(=O)c3c(C)n(CCN4CCOCC4)c4ccccc34)cccc2c1 | 24.4 µM (inactive) | 25.1 µM (inactive) | 7.18 µM (inactive) | 9.35 | 11.2 µM (inactive) | 16.3 µM (inactive) | 12.9 µM (inactive) | 16.3 µM (inactive) | 17.3 µM (inactive) | 4.06 µM (inactive) | 15.4 µM (inactive) | 10.8 µM (inactive) | 31.3 µM (inactive) | 33.9 µM (inactive) | 6.43 µM (inactive) | 0.685 µM (active) | 12.9 µM (inactive) | 16.3 µM (inactive) | 14.3 µM (inactive) | 
2 | Nc1nc(Cl)c(/C=N\O)c(NCC2(CO)CC(=O)C2)n1 | 30.8 µM (inactive) | 75.3 µM (inactive) | 88.7 µM (inactive) | > 100 | 80 µM (inactive) | 24.5 µM (inactive) | 45.8 µM (inactive) |  | 80.7 µM (inactive) | 96.4 µM (inactive) | 84.3 µM (inactive) | > 100 µM (inactive) | > 100 µM (inactive) | > 100 µM (inactive) | 3.85 µM (inactive) | 89.1 µM (inactive) | > 100 µM (inactive) | 58.3 µM (inactive) |  | > 100 µM (inactive)
3 | C/C(=N\O)C1CC2C=C(C#N)C1N(Cc1ccccc1)C2 (stereo not drawn) | > 100 µM (inactive) | > 100 µM (inactive) | > 100 µM (inactive) | > 100 | > 100 µM (inactive) | > 100 µM (inactive) | > 100 µM (inactive) | > 100 µM (inactive) | > 100 µM (inactive) | > 100 µM (inactive) |  | 45.3 µM (inactive) | > 100 µM (inactive) | > 100 µM (inactive) | > 100 µM (inactive) | > 100 µM (inactive) | 46.3 µM (inactive) | > 100 µM (inactive) | > 100 µM (inactive) | > 100 µM (inactive)
4 | NC(=O)/C=C/c1c[nH]c2nccnc12 | 4.41 µM (inactive) | 3.08 µM (inactive) | 1.59 µM (inactive) | 3.27 | 2.68 µM (inactive) | 2.93 µM (inactive) | 0.625 µM (active) | 3.97 µM (inactive) | 3.71 µM (inactive) | 3.81 µM (inactive) | 4.09 µM (inactive) | 2.86 µM (inactive) | 1.01 µM (active) | 0.973 µM (active) | 1.66 µM (inactive) | 0.891 µM (active) | 4.85 µM (inactive) | 4.11 µM (inactive) | 2.76 µM (inactive) | 1.67 µM (inactive)
5 | CC1(C)C2CC3C4CC5(Nc6ccccc6C5N41)[C@]3(C)CC2=O (stereo partly drawn) | > 50 µM (inactive) | > 50 µM (inactive) | > 50 µM (inactive) | > 50 | > 50 µM (inactive) | > 50 µM (inactive) | > 50 µM (inactive) |  | > 50 µM (inactive) | > 50 µM (inactive) | > 50 µM (inactive) | > 50 µM (inactive) | > 50 µM (inactive) |  | > 50 µM (inactive) | > 50 µM (inactive) | > 50 µM (inactive) | > 50 µM (inactive) | > 50 µM (inactive) | > 50 µM (inactive)
6 | COC(=O)/C=C/c1ccc2c(c1)CCC2 | 46.1 µM (inactive) | 17.4 µM (inactive) | 22.3 µM (inactive) | 17.3 | 26.8 µM (inactive) |  | > 100 µM (inactive) | 64.3 µM (inactive) | 63.2 µM (inactive) | > 100 µM (inactive) | 74.3 µM (inactive) | 53.5 µM (inactive) |  | 48.5 µM (inactive) | 36.7 µM (inactive) | 5.13 µM (inactive) | 9.79 µM (inactive) | 54 µM (inactive) |  | 
7 | N#Cc1c(N)[nH]c(=S)c(C#N)c1-c1cccc(Cl)c1 | 63.7 µM (inactive) | 65.8 µM (inactive) | 24.4 µM (inactive) | 41.1 | 34.2 µM (inactive) | 43.3 µM (inactive) | 39.9 µM (inactive) | 36.5 µM (inactive) | 29.4 µM (inactive) | 18.2 µM (inactive) | 40.7 µM (inactive) | 30.1 µM (inactive) | 20.4 µM (inactive) | 56.2 µM (inactive) | 18.6 µM (inactive) | 24.4 µM (inactive) | 25.9 µM (inactive) | 36.3 µM (inactive) | 29.6 µM (inactive) | 15.2 µM (inactive)
8 | CC1=NN2C(=N)/C(=C/c3ccco3)C(=O)N=C2S1 | > 100 µM (inactive) | > 100 µM (inactive) | > 100 µM (inactive) | > 100 | > 100 µM (inactive) | > 100 µM (inactive) | > 100 µM (inactive) | > 100 µM (inactive) | > 100 µM (inactive) | > 100 µM (inactive) | > 100 µM (inactive) | > 100 µM (inactive) | > 100 µM (inactive) | > 100 µM (inactive) | 50.4 µM (inactive) | > 100 µM (inactive) | > 100 µM (inactive) | > 100 µM (inactive) | > 100 µM (inactive) | > 100 µM (inactive)
9 | CC1(C)O[C@H]2Cn3c(c(C#N)c4ccccc43)[C@H]2O1 | > 100 µM (inactive) | 85.1 µM (inactive) | > 100 µM (inactive) | > 100 | > 100 µM (inactive) | > 100 µM (inactive) |  | > 100 µM (inactive) | > 100 µM (inactive) | > 100 µM (inactive) | > 100 µM (inactive) |  | > 100 µM (inactive) | > 100 µM (inactive) | > 100 µM (inactive) |  | > 100 µM (inactive) |  | > 100 µM (inactive) | > 100 µM (inactive)
10 | S=c1[nH]nc(Cn2c3ccc(Br)cc3c3nc4ccccc4nc32)n1C1CCCCC1 | 21.2 µM (inactive) | 34.2 µM (inactive) | 12.1 µM (inactive) | 22 | 16.1 µM (inactive) | 32.7 µM (inactive) |  | 29.8 µM (inactive) | 36.5 µM (inactive) | 37.5 µM (inactive) | 13.7 µM (inactive) | 22.6 µM (inactive) | 25 µM (inactive) | 43.5 µM (inactive) | 8.13 µM (inactive) | 25.3 µM (inactive) | 18.5 µM (inactive) | 31.6 µM (inactive) | 16.1 µM (inactive) | 
11 | Cc1ccc(Nc2ncnc3sc(SCc4ccccc4)nc23)cc1 | 88.9 µM (inactive) | 26 µM (inactive) | > 100 µM (inactive) | 57.7 | 36.1 µM (inactive) | > 100 µM (inactive) | > 100 µM (inactive) | > 100 µM (inactive) | > 100 µM (inactive) | > 100 µM (inactive) | > 100 µM (inactive) | > 100 µM (inactive) | > 100 µM (inactive) | > 100 µM (inactive) | > 100 µM (inactive) | > 100 µM (inactive) | > 100 µM (inactive) | > 100 µM (inactive) |  | > 100 µM (inactive)
12 | O=C(NN=C(c1ccccc1)c1ccccc1)/C(O)=C/C(=O)c1ccc(Cl)cc1 | 27.7 µM (inactive) | > 100 µM (inactive) | 31.5 µM (inactive) | 24.7 | 44.3 µM (inactive) | 45 µM (inactive) |  | > 100 µM (inactive) | 11.9 µM (inactive) | 40.5 µM (inactive) | 45.4 µM (inactive) | 30.1 µM (inactive) | 27.9 µM (inactive) | 38.3 µM (inactive) | 39.2 µM (inactive) |  | 39.1 µM (inactive) | 37.3 µM (inactive) | 39.1 µM (inactive) | 19.9 µM (inactive)
13 | O=C(Oc1ccc(C(c2c(O)c3ccccc3oc2=O)c2c(O)c3ccccc3oc2=O)cc1)c1ccc(C(=O)c2ccccc2)cc1 | 25.3 µM (inactive) | 28 µM (inactive) | 34.2 µM (inactive) | 37.2 | 17.7 µM (inactive) | 17.1 µM (inactive) | 21.9 µM (inactive) |  | 35.6 µM (inactive) | 36.1 µM (inactive) | 38.4 µM (inactive) | 16.6 µM (inactive) | 43 µM (inactive) | 17.4 µM (inactive) | 26.1 µM (inactive) | 32.7 µM (inactive) | 23.6 µM (inactive) | 17.2 µM (inactive) | 19.6 µM (inactive) | 29.2 µM (inactive)
14 | CCN(CC)C(=O)N[C@@H](CC(C)C)C(=O)NC | > 100 µM (inactive) | > 100 µM (inactive) | > 100 µM (inactive) | > 100 | > 100 µM (inactive) | > 100 µM (inactive) | > 100 µM (inactive) | > 100 µM (inactive) | > 100 µM (inactive) | > 100 µM (inactive) | > 100 µM (inactive) | > 100 µM (inactive) | > 100 µM (inactive) | > 100 µM (inactive) | > 100 µM (inactive) | > 100 µM (inactive) | > 100 µM (inactive) |  | > 100 µM (inactive) | > 100 µM (inactive)
15 | Cc1occc(=O)c1O [MALTOL] | > 100 µM (inactive) | > 100 µM (inactive) | > 100 µM (inactive) | 4.25 | > 100 µM (inactive) | > 100 µM (inactive) | > 100 µM (inactive) | > 100 µM (inactive) | 3.84 µM (inactive) | > 100 µM (inactive) | > 100 µM (inactive) | > 100 µM (inactive) | 5 µM (inactive) | > 100 µM (inactive) | > 100 µM (inactive) | > 100 µM (inactive) | > 100 µM (inactive) | > 100 µM (inactive) |  | > 100 µM (inactive)
